The subject of data set [1] is human neuroblastoma SK-N-MC cells. The data set can be described thus: Protection against neuronal death induced by 3-nitropropionic acid (inhibition of succinate dehydrogenase), WST-1. It is filed as cell-based. The settings on record: NST0060 at 40 μM; 30 μM 3-NP, 22 hours; significant in the range of 4 to 40 μM. The method, then:
(§1) The assay was performed on human neuroblastoma SK-N-MC cells in culture, maintained as described in section 2.1.
The inhibition caused by compound NST0060 with respect to cell death caused by treatment with 3-nitropropionic (3-NP) acid was analyzed. 3-NP is an irreversible inhibitor of the succinate dehydrogenase enzyme which in animal models causes oxidative stress and apoptotic cell death in the striatum and mimics neurochemical and anatomical changes associated with Huntington's disease (HD). These cells, not exceeding 15 passages, were seeded on 96-well plates treated for adherent cells with a cell concentration of 5×10^4 cells/well; 3 wells of the plate were seeded for each assay condition.
After 24 hours of cell incubation (at 37° C. and 5% CO2), the cell treatments were performed with 100 μl of total volume for the following conditions: • Control: culture medium (medium) • 3-Nitropropionic (3-NP): medium plus 30 μM 3-NP, causing death of 50% of the cells. • 3-NP plus NST0060: medium plus 3-NP (30 μM) plus NST0060 at 1, 4, 10, 40 or 100 μM.
The cells were incubated (at 37° C. and 5% CO2) with these treatments for 22 hours, after which time WST-1 reagent (Roche) was added. The WST-1 test is based on the measurement of metabolic activity (method described in section 2.1).

The test system is the same in data set [2]. The data set can be described thus: Inhibition of DNA fragmentation (sub-G1, flow cytometry) in camptothecin cell model of apoptosis. It is filed as cell-based. Conditions: pretreatment 24 hours at 10 μM; 50 μM CPT 6 hours. The method, then:
as §1
The inhibition caused by compound NST0060 with respect to apoptosis caused by treatment with camptothecin (CPT), which inhibits the topoisomerase I enzyme, prevents DNA duplication and triggers apoptotic cell death. These cells, not exceeding 15 passages, were seeded on 6-well plates treated for adherent cells with a cell concentration of 7×10^5 cells/well; 2 wells of the plate were seeded for each assay condition.
After 24 hours of cell incubation (at 37° C. and 5% CO2), cell pretreatment was performed with 10 and 40 μM of NST0060 for 24 hours; they were subsequently treated with 50 μM CPT for 6 hours. Furthermore, Z-VAD-fmk at 50 μM was used as positive control for inhibition.
After treatment, the cells were collected along with their culture medium and centrifuged at 300×g for 5 minutes. The medium was removed, a washing was performed with PBS and the cells were fixed for 2 minutes with 500 μl of 70% ethanol at −20° C. […] After this time they were analyzed by flow cytometry, comparing the fluorescence of propidium iodide with respect to the amount of DNA. The percentage of apoptosis was measured on the sub-G1 region of each of the conditions.
Background: Flow cytometry measures light scatter and fluorescence of single cells or particles in a stream.

The subject of data set [3] is promoter of a gene that could be modulated by oxidative stress bound to the firefly luciferase reporter gene. The data set can be described thus: Oxidative stress of the brain induced by kainate in luciferase reporter mice, in vivo bioluminescence. The settings on record: 50 mg/kg i.p. at 24 and 0.5 hours before KA 25 mg/kg and daily; 1 to 4 dpi. The protocol:
All the animals included during the experimental process were 12-week old males from the FVB/N strain who were carriers of a gene construct with the promoter of a gene that could be modulated by oxidative stress bound to the firefly luciferase reporter gene. The experiments were carried out strictly complying with the standard entitled Guidance on the Operation of Animals (Scientific Procedures, Act. 1986). The animals were subjected to their respective quarantine period and were treated with maximum precaution to minimize possible contaminations during inoculations and handling.
The animals were intraperitoneally inoculated with 25 mg/kg of kainate (KA) dissolved in PBS. Seven mice were pretreated at 24 and 0.5 hours before inoculation with KA and subsequently on a daily basis up to 7 days post-inoculation by means of intraperitoneal injection with 0.25% methyl cellulose in PBS as a vehicle (vehicle+KA administration regimen), and another 7 mice were pretreated at 24 and 0.5 hours before inoculation with KA and subsequently on a daily basis up to 7 days post-inoculation by means of intraperitoneal injection with compound NST0060 at a dose of 50 mg/kg (NST0060+KA administration regimen). […] Oxidative stress in the brain was monitored by means of the in vivo bioluminescence technique with the IVIS Lumina system (Caliper LS). […]
(In a reporter assay the amount or activity of a reporter protein is the signal.)

A further data set has as its system TNFα. The data set can be described thus: LPS model of systemic inflammation in mice, plasma TNFα, NST0060 compared with simvastatin. It is filed as in vivo. Conditions: two i.p. doses of 50 mg/kg (lactone forms); 2 hours after LPS 8 mg/kg i.p. From the text:
The investigators considered necessary to evaluate alternative activities with respect to hypocholesterolemic and neuroprotective activities given the characteristics and properties of the molecule. […] To evaluate this activity, a model of systemic shock in mice induced by lipopolysaccharide (LPS), a component of the gram negative bacteria structure that induces a cytokine-mediated, mainly TNFα-mediated, inflammatory response was used.
All the animals included during the experimental process were 12-week old male C57BL6 mice. The experiments were carried out strictly complying with the standard entitled Guidance on the Operation of Animals (Scientific Procedures, Act. 1986). The animals were subjected to their respective quarantine period and were treated with maximum precaution to minimize possible contaminations during treatments and handling.
In both cases 0.5% methyl cellulose in physiological saline, which was administered to mice in the control group with the same administration regimen, was used as a vehicle. Peripheral systemic inflammation was induced one hour after the last treatment by means of a single i.p. injection of LPS at 8 mg/kg. Two hours later blood was taken and plasma was obtained, which was used to evaluate the anti-inflammatory effect by analyzing plasma concentrations of TNFα by means of ELISA.

The conditions of data set [4]: PAMPA, 18 h, 100 μM, pH 7.4.
From the text: To that end, the BBB was mimicked in an in vitro system that allowed evaluating the compound without using cells, and where the so-called PAMPA (Parallel Artificial Membrane Permeation Assay) was used, using a sandwich system considering the crossing of compounds by means of passive diffusion.
A mixture of marketed lipids derived from pig brain with a phospholipid composition very similar to that which forms the barrier and known as PBL (Porcine Polar Brain Lipid) was used to mimic the blood-brain barrier. This compound was stored at −20° C. dissolved in dodecane at 100 μg/ml in glass vials.
To that end, a 1/100 dilution of the compounds was performed, being the DMSO content in all cases 1%.
Five microliters of PBL at 20 μg/ml prepared from the frozen stock at 100 μg/mL were added in a 96-well filter plate, with a PVDF membrane and a pore size of 45 μm (MAIPN4550, Millipore). After 2 minutes, 300 μl of the phosphate buffer used to dilute the compounds were added. […] After that time, 100 μl from the wells of the donor plates and acceptor plates were transferred to a special 96-well plate for UV reading. […] The percentage of barrier crossing as well as the effective permeability (Pe) were calculated from the spectrophotometric data. […]
[Drug]acceptor=Absorbance of the acceptor well
[Drug]equilibrium=Absorbance of the mean of the basal wells/2 […]

Structures are written as SMILES.

Regarding `CCCC(CCC)C(=O)O[C@H]1C[C@@H](C)C=C2C=C[C@H](C)[C@H](CC[C@@H]3C[C@@H](O)CC(=O)O3)[C@H]21` [NST0060, 2-propylpentanoic acid (1S,3R,7S,8S,8aR)-1,2,3,7,8,8a-hexahydro-3,7-dimethyl-8-[2-[(2R,4R)-tetrahydro-4-hydroxy-6-oxo-2H-pyran-2-yl]ethyl]-1-naphthalenyl ester], in data set [1], the “protection against cell death caused by 3-NP” value stood at 32%. Moreover, the “maximum protection against apoptosis (DNA fragmentation) caused by CPT” value in data set [2] amounted to 41%. Besides, the “expression of gene associated with oxidative stress in the brain (photon emission)” value in data set [3] is on record as “did not show a significant increase in the expression of this gene associated with oxidative stress”. Besides, in the data set on TNFα, the “TNFα plasma levels with respect to the control group” value is recorded as “large decrease in said levels that is significant with respect to the control group” and the “TNFα plasma levels with respect to the simvastatin group” value is on record as “statistically significant TNFα plasma level reductions with respect to the group of simvastatin”. For the same compound, the “% BBB crossing” value in data set [4] is 29.8 ± 2.4%.

The values above are taken from patent US20130197073A1, “HYPOCHOLESTEROLEMIC, ANTI-INFLAMMATORY AND ANTIEPILEPTIC NEUROPROTECTIVE COMPOUND” (NEURON BIOPHARMA, S.A., priority 2010, published 2013).
